Measurements as given in the supplement of paper PMC10307832.

What was measured:
Assay in all cases: relative viability (nuclei count vs DMSO), 5 days (fraction); higher = more cells survive
[1] = compound: COc1ncc(-c2ccc3nccc(-c4ccnnc4)c3c2)cc1NS(=O)(=O)c1ccc(F)cc1F [Omipalisib]
Summary of the method: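 After an overnight hold at 37 °C, lung cancer cell lines in 1536-well plates were pinned with five library-drug doses (not always all listed), each √10 from the next, on vehicle-anchored plates. The cells stayed 5 days without fresh medium, then a one-step fix, permeabilisation and Hoechst stain preceded 4× imaging and MetaXpress nuclear counts. A plate passed only with control CV under 25% and at least one doubling. Viability is the median, over plates, of treated-well nuclei relative to vehicle-well nuclei.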

[2] = compound: COc1ncc(-c2ccc3nccc(-c4ccnnc4)c3c2)cc1NS(=O)(=O)c1ccc(F)cc1F [Omipalisib] + CC(C)C[C@H](NC(=O)[C@H](Cc1ccccc1)NC(=O)c1cnccn1)B(O)O [Bortezomib] (partner 0.002 µM)
Summary of the method: (§1)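 A single step with final 0.05% Triton X-100, 1% formaldehyde and 1 ug/ml Hoechst fixed the cells and stained nuclei 5 days after treatment. Lung cancer cell lines in 1536-well plates had been treated by pin tool the day after seeding with one drug alone or a fixed anchor-drug dose plus five library-drug doses (not always all listed) in √10 steps, and nuclei were counted on 4× images. Relative viability is the ratio of nuclei in treated wells to nuclei in vehicle wells, taken as the median of duplicate plates.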

[3] = compound: COc1ncc(-c2ccc3nccc(-c4ccnnc4)c3c2)cc1NS(=O)(=O)c1ccc(F)cc1F [Omipalisib] + CC1(C)CCC(c2ccc(Cl)cc2)=C(CN2CCN(c3ccc(C(=O)NS(=O)(=O)c4ccc(N[C@H](CCN5CCOCC5)CSc5ccccc5)c(S(=O)(=O)C(F)(F)F)c4)cc3)CC2)C1 [Navitoclax] (partner 0.5 µM)
Summary of the method: as §1

[4] = compound: COc1ncc(-c2ccc3nccc(-c4ccnnc4)c3c2)cc1NS(=O)(=O)c1ccc(F)cc1F [Omipalisib] + COc1cc2c(Oc3ccc(NC(=O)C4(C(=O)Nc5ccc(F)cc5)CC4)cc3F)ccnc2cc1OCCCN1CCOCC1 [Foretinib] (partner 0.25 µM)
Summary of the method: as §1

[5] = compound: COc1ncc(-c2ccc3nccc(-c4ccnnc4)c3c2)cc1NS(=O)(=O)c1ccc(F)cc1F [Omipalisib] + CS(=O)(=O)CCNCc1ccc(-c2ccc3ncnc(Nc4ccc(OCc5cccc(F)c5)c(Cl)c4)c3c2)o1 [Lapatinib] (partner 2 µM)
Summary of the method: as §1

[6] = compound: COc1ncc(-c2ccc3nccc(-c4ccnnc4)c3c2)cc1NS(=O)(=O)c1ccc(F)cc1F [Omipalisib] + CS(=O)(=O)N1CCN(Cc2cc3nc(-c4cccc5[nH]ncc45)nc(N4CCOCC4)c3s2)CC1 [Pictilisib] (partner 1 µM)
Summary of the method: as §1

[7] = compound: COc1ncc(-c2ccc3nccc(-c4ccnnc4)c3c2)cc1NS(=O)(=O)c1ccc(F)cc1F [Omipalisib] + C[C@@H](Oc1cc(-c2cnn(C3CCNCC3)c2)cnc1N)c1c(Cl)ccc(F)c1Cl [Crizotinib] (partner 1 µM)
Summary of the method: as §1

[8] = compound: COc1ncc(-c2ccc3nccc(-c4ccnnc4)c3c2)cc1NS(=O)(=O)c1ccc(F)cc1F [Omipalisib] + C[C@]1(O)C[C@@H](c2nc(-c3ccc4ccc(-c5ccccc5)nc4c3)c3c(N)nccn32)C1 [Linsitinib] (partner 1 µM)
Summary of the method: as §1

[9] = compound: COc1ncc(-c2ccc3nccc(-c4ccnnc4)c3c2)cc1NS(=O)(=O)c1ccc(F)cc1F [Omipalisib] + Cc1nc(NC(=O)N2CCC[C@H]2C(N)=O)sc1-c1ccnc(C(C)(C)C(F)(F)F)c1 [Alpelisib] (partner 2 µM)
Summary of the method: as §1

[10] = compound: COc1ncc(-c2ccc3nccc(-c4ccnnc4)c3c2)cc1NS(=O)(=O)c1ccc(F)cc1F [Omipalisib] + O=C(CCCCCCC(=O)Nc1ccccc1)NO [Vorinostat] (partner 1 µM)
Summary of the method: as §1

[11] = compound: COc1ncc(-c2ccc3nccc(-c4ccnnc4)c3c2)cc1NS(=O)(=O)c1ccc(F)cc1F [Omipalisib] + O=C(c1cc(Cc2n[nH]c(=O)c3ccccc23)ccc1F)N1CCN(C(=O)C2CC2)CC1 [Olaparib] (partner 8 µM)
Summary of the method: as §1

[12] = compound: COc1ncc(-c2ccc3nccc(-c4ccnnc4)c3c2)cc1NS(=O)(=O)c1ccc(F)cc1F [Omipalisib] + CC(=O)Nc1cccc(-n2c(=O)n(C3CC3)c(=O)c3c(Nc4ccc(I)cc4F)n(C)c(=O)c(C)c32)c1 [Trametinib] (partner 0.02 µM)
Summary of the method: as §1

[13] = compound: COc1ncc(-c2ccc3nccc(-c4ccnnc4)c3c2)cc1NS(=O)(=O)c1ccc(F)cc1F [Omipalisib] + CC(=O)c1c(C)c2cnc(Nc3ccc(N4CCNCC4)cn3)nc2n(C2CCCC2)c1=O [Palbociclib] (partner 0.5 µM)
Summary of the method: as §1

[14] = compound: COc1ncc(-c2ccc3nccc(-c4ccnnc4)c3c2)cc1NS(=O)(=O)c1ccc(F)cc1F [Omipalisib] + CCNC(=O)c1noc(-c2cc(C(C)C)c(O)cc2O)c1-c1ccc(CN2CCOCC2)cc1 [Luminespib] (partner 0.01 µM)
Summary of the method: as §1

[15] = compound: COc1ncc(-c2ccc3nccc(-c4ccnnc4)c3c2)cc1NS(=O)(=O)c1ccc(F)cc1F [Omipalisib] + COc1cccc2cc(-c3nc([C@H]4CC[C@H](C(=O)O)CC4)n4ncnc(N)c34)[nH]c12 [OSI-027] (partner 0.5 µM)
Summary of the method: as §1

[16] = compound: COc1ncc(-c2ccc3nccc(-c4ccnnc4)c3c2)cc1NS(=O)(=O)c1ccc(F)cc1F [Omipalisib] + Cc1cc(Nc2cc(N3CCN(C)CC3)nc(Sc3ccc(NC(=O)C4CC4)cc3)n2)n[nH]1 [Tozasertib] (partner 0.1 µM)
Summary of the method: as §1

[17] = compound: COc1ncc(-c2ccc3nccc(-c4ccnnc4)c3c2)cc1NS(=O)(=O)c1ccc(F)cc1F [Omipalisib] + Cc1nc(Nc2ncc(C(=O)Nc3c(C)cccc3Cl)s2)cc(N2CCN(CCO)CC2)n1 [Dasatinib] (partner 0.075 µM)
Summary of the method: as §1

[18] = compound: COc1ncc(-c2ccc3nccc(-c4ccnnc4)c3c2)cc1NS(=O)(=O)c1ccc(F)cc1F [Omipalisib] + N=C(N)NC(=N)NCCc1ccccc1 [Phenformin] (partner 250 µM)
Summary of the method: as §1

[19] = compound: COc1ncc(-c2ccc3nccc(-c4ccnnc4)c3c2)cc1NS(=O)(=O)c1ccc(F)cc1F [Omipalisib] + NC(=O)Nc1cc(-c2cccc(F)c2)sc1C(=O)N[C@H]1CCCNC1 [AZD7762] (partner 0.2 µM)
Summary of the method: as §1

[20] = compound: COc1ncc(-c2ccc3nccc(-c4ccnnc4)c3c2)cc1NS(=O)(=O)c1ccc(F)cc1F [Omipalisib] + Nc1nc2[nH]cc(CCc3ccc(C(=O)N[C@@H](CCC(=O)O)C(=O)O)cc3)c2c(=O)[nH]1 [Pemetrexed] (partner 0.2 µM)
Summary of the method: as §1

[21] = compound: COc1ncc(-c2ccc3nccc(-c4ccnnc4)c3c2)cc1NS(=O)(=O)c1ccc(F)cc1F [Omipalisib] + Nc1ncn([C@H]2C[C@H](O)[C@@H](CO)O2)c(=O)n1 [Decitabine] (partner 2 µM)
Summary of the method: as §1

IA-LM
relative viability ([1]; 0.0003 µM): 0.888 | relative viability ([1]; 0.003 µM): 0.764 | relative viability ([1]; 0.03 µM): 0.355 | relative viability ([2]; first compound 0.0003 µM): 1.01 | relative viability ([2]; first compound 0.003 µM): 0.818 | relative viability ([2]; first compound 0.03 µM): 0.258 | relative viability ([3]; first compound 0.0003 µM): 0.92 | relative viability ([3]; first compound 0.003 µM): 0.847 | relative viability ([3]; first compound 0.03 µM): 0.251 | relative viability ([4]; first compound 0.0003 µM): 1.27 | relative viability ([4]; first compound 0.003 µM): 0.997 | relative viability ([4]; first compound 0.03 µM): 0.683 | relative viability ([5]; first compound 0.0003 µM): 0.95 | relative viability ([5]; first compound 0.003 µM): 0.703 | relative viability ([5]; first compound 0.03 µM): 0.251 | relative viability ([6]; first compound 0.0003 µM): 0.45 | relative viability ([6]; first compound 0.003 µM): 0.317 | relative viability ([6]; first compound 0.03 µM): 0.197 | relative viability ([7]; first compound 0.0003 µM): 0.906 | relative viability ([7]; first compound 0.003 µM): 0.682 | relative viability ([7]; first compound 0.03 µM): 0.288 | relative viability ([8]; first compound 0.0003 µM): 0.636 | relative viability ([8]; first compound 0.003 µM): 0.571 | relative viability ([8]; first compound 0.03 µM): 0.243 | relative viability ([9]; first compound 0.0003 µM): 0.785 | relative viability ([9]; first compound 0.003 µM): 0.793 | relative viability ([9]; first compound 0.03 µM): 0.373 | relative viability ([10]; first compound 0.0003 µM): 0.873 | relative viability ([10]; first compound 0.003 µM): 0.916 | relative viability ([10]; first compound 0.03 µM): 0.25 | relative viability ([11]; first compound 0.0003 µM): 0.903 | relative viability ([11]; first compound 0.003 µM): 0.85 | relative viability ([11]; first compound 0.03 µM): 0.602

NCI-H522
relative viability ([1]; 0.0003 µM): 0.838 | relative viability ([1]; 0.003 µM): 0.912 | relative viability ([1]; 0.03 µM): 0.694 | relative viability ([12]; first compound 0.0003 µM): 0.746 | relative viability ([12]; first compound 0.003 µM): 0.604 | relative viability ([12]; first compound 0.03 µM): 0.443 | relative viability ([13]; first compound 0.0003 µM): 1.01 | relative viability ([13]; first compound 0.003 µM): 0.823 | relative viability ([13]; first compound 0.03 µM): 0.532 | relative viability ([14]; first compound 0.0003 µM): 1.04 | relative viability ([14]; first compound 0.003 µM): 1.89 | relative viability ([14]; first compound 0.03 µM): 0.652 | relative viability ([15]; first compound 0.0003 µM): 0.69 | relative viability ([15]; first compound 0.003 µM): 0.641 | relative viability ([15]; first compound 0.03 µM): 0.531 | relative viability ([16]; first compound 0.0003 µM): 0.515 | relative viability ([16]; first compound 0.003 µM): 0.451 | relative viability ([16]; first compound 0.03 µM): 0.438 | relative viability ([17]; first compound 0.0003 µM): 0.857 | relative viability ([17]; first compound 0.003 µM): 0.745 | relative viability ([17]; first compound 0.03 µM): 0.626 | relative viability ([18]; first compound 0.0003 µM): 0.604 | relative viability ([18]; first compound 0.003 µM): 0.559 | relative viability ([18]; first compound 0.03 µM): 0.583 | relative viability ([19]; first compound 0.0003 µM): 0.652 | relative viability ([19]; first compound 0.003 µM): 0.58 | relative viability ([19]; first compound 0.03 µM): 0.839 | relative viability ([20]; first compound 0.0003 µM): 0.963 | relative viability ([20]; first compound 0.003 µM): 0.932 | relative viability ([20]; first compound 0.03 µM): 0.636 | relative viability ([21]; first compound 0.0003 µM): 0.665 | relative viability ([21]; first compound 0.003 µM): 0.596 | relative viability ([21]; first compound 0.03 µM): 0.595 | relative viability ([10]; first compound 0.0003 µM): 0.837 | relative viability ([10]; first compound 0.003 µM): 0.766 | relative viability ([10]; first compound 0.03 µM): 0.724 | relative viability ([11]; first compound 0.0003 µM): 0.532 | relative viability ([11]; first compound 0.003 µM): 0.614 | relative viability ([11]; first compound 0.03 µM): 0.505
